Read-outs that look alike come from different tables or passages of the source.

What all share (type): cell-based
One data set addresses T1, OR2T4 (Homo sapiens, UniProt Q8NH00, D328E/G331D/M330K).
T1 construct: expressed in transfected cells; host or cells: HEK293T cells stably expressing human RTP1S (V227I) and RTP2 (L220R)
T1 sequence (Q8NH00 with tags, fused parts or gaps D328E/M330K/G331D): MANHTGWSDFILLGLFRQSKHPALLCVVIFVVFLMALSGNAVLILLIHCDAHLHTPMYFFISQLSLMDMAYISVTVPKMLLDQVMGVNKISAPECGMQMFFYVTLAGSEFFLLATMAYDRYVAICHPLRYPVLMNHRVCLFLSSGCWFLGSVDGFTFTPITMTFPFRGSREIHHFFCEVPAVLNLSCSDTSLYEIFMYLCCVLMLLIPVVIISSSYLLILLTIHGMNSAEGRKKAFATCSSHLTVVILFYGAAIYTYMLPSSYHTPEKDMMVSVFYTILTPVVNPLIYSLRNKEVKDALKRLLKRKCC
Nature of the data set: cell-based. The conditions noted are these: OR2T4 with SEQ ID NO: 86. The source says: (§1) To create an expression plasmid, an OR coding sequence fused at the end of TM7 to the desired C-terminus sequence was synthesized by a DNA synthesis service provider (BioCat GmbH, Germany) and inserted into pcDNA3.1(+) (Invitrogen, MA, USA) downstream of the CMV promoter sequence (SEQ ID NO: 82) using BamHI and Notl restriction sites. All the synthetic OR nucleotide sequences described below in Examples 1-15 further contained at their N-terminus a nucleotide sequence encoding a signal peptide (mmLucy-FLAG-rho, SeQ ID NOs: 80, 81) and at the C-terminus the bgh terminator sequence (SEQ ID NO: 83). All the OR expression plasmids also contain a Kozak sequence (GCCACC) between the BamHI restriction site and the start codon of the signal peptide. These plasmids thus contain a constitutively expressed OR gene.

Another data set concerns the target T2, OR7C1 (Homo sapiens, UniProt O76099, D296E/G302K/M297V/R299D/T295K).
T2 construct: expressed in transfected cells; host or cells: HEK293T cells stably expressing human RTP1S (V227I) and RTP2 (L220R); transient transfection of pcDNA3.1(+) OR plasmid
T2 sequence (O76099 with tags, fused parts or gaps T295K/D296E/M297V/R299D/G302K limits assumed): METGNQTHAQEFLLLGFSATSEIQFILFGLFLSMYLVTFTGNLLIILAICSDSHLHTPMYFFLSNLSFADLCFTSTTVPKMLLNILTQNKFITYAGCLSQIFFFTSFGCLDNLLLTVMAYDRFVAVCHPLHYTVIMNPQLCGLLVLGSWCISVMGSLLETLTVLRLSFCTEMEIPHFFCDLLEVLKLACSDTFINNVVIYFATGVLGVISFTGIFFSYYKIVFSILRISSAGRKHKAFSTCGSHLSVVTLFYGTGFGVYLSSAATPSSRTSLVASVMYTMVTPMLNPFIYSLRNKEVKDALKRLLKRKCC
Put plainly: Luciferase dose-response, wild-type vs changed C-terminus (SEQ ID NO: 86). The conditions noted are these: for EC50: read-out: Potency EC50.
Excerpt: as §1

Data set [1] concerns the target T3, OR10A6(A117V,V140G,L287P) (Homo sapiens, UniProt Q8NH74, A117V/L287P/V140G).
T3 construct: expressed in transfected cells; host or cells: HEK293T stably expressing human RTP1S(V227I) and RTP2(L220R) (general method)
T3 sequence (Q8NH74 with tags, fused parts or gaps A117V/V140G/L287P): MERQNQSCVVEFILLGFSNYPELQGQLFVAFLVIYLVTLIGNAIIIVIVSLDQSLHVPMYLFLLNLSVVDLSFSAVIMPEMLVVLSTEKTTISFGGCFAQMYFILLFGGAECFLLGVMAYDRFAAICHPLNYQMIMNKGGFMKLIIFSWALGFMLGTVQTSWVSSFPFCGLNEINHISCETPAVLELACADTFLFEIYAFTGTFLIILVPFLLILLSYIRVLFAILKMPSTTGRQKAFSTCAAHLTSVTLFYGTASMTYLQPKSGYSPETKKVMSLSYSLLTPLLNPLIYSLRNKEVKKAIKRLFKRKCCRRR
Put plainly: Luciferase assay with odorant mixtures/single ingredients, OR with SEQ ID NO: 221. From the text:
(§2) All human class II OR and all key genetic variants of these OR were synthesized with a sequence coding for an identical modified C-terminal domain […] (SEQ ID NO: 221) in the vector pcDNA3.1(+) to generate a library of all class II OR with an improved C-terminal domain. Class II OR library members with modified C-terminal domains
(§3) Similarly, a mixture of odorants with fruity-lactonic descriptors was made containing equal amounts of dodecalactone delta, heptalactone gamma, octalactone gamma, nonalactone gamma, undecalactone gamma, decalactone gamma, dodecalactone gamma, decalactone delta, methyl tuberate and nectaryl. […] Table 25. OR identified by screening class II OR with a mixture of fruity lactones
(§4) In a subsequent de-convolution experiment, the single ingredients were tested in a dose-response test on all the identified OR. […] Thus, OR2AP1 and OR2J2 are particularly strongly activated by the long-chain dodecalactone gamma, while OR10A3 is very sensitive to several longer chain lactones. […] Among the five OR, OR10A3 is the most sensitive. […] Table 26. OR identified by screening class II OR with a mixture of fruity lactones tested with individual lactones in a dose-response analysis

Another data set deals with T4, OR10A3 (Homo sapiens, UniProt P58181).
T4 construct: expressed in transfected cells; host or cells: HEK293T stably expressing human RTP1S(V227I) and RTP2(L220R) (general method)
T4 sequence (P58181 with tags, fused parts or gaps): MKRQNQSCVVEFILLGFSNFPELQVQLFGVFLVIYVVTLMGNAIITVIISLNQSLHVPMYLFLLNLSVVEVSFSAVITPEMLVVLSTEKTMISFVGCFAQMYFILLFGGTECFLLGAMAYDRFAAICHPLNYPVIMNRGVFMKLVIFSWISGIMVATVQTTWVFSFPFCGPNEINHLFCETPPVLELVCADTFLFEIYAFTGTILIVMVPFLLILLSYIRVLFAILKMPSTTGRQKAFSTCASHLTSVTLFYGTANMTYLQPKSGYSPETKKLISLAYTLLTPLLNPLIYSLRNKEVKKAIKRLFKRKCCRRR
The description is as above.
Excerpt: as §2, §3, §4

The target in the next data set is T5, OR10J1(M51I,I92M) (Homo sapiens, UniProt P30954, I103M/M62I).
T5 construct: expressed in transfected cells; host or cells: HEK293T stably expressing human RTP1S(V227I) and RTP2(L220R) (general method)
T5 sequence (P30954 with tags, fused parts or gaps M62I/I103M): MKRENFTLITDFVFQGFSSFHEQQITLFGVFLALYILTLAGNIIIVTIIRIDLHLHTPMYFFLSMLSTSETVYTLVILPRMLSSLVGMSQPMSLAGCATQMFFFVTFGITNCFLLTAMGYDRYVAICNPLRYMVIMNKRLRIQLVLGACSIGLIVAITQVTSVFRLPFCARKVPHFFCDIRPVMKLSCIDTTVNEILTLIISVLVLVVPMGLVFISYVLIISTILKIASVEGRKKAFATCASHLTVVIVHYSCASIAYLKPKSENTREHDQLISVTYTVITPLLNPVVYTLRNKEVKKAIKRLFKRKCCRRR
Described as above.
Excerpt: as §2, §3, §4

In another data set the target is T6, OR2J2 (Homo sapiens, UniProt O76002, A146V/A218T/A302I/G300K/H297E/H74Y).
T6 construct: expressed in transfected cells; host or cells: HEK293T stably expressing human RTP1S(V227I) and RTP2(L220R) (general method)
T6 sequence (O76002 with tags, fused parts or gaps H74Y/A146V/A218T/H297E/G300K/A302I): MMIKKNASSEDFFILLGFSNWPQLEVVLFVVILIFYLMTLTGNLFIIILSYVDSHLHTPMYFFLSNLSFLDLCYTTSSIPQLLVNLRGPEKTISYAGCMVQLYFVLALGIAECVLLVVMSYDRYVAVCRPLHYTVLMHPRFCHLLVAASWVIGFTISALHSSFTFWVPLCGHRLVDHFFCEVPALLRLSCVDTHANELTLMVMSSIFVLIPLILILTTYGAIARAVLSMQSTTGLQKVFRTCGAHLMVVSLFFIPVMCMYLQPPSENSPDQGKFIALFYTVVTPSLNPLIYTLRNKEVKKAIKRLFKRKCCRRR
Described as above.
Excerpt: as §2, §3, §4

In a further data set the target is T7, OR2AP1 (Homo sapiens, UniProt Q8NGE2).
T7 construct: expressed in transfected cells; host or cells: HEK293T stably expressing human RTP1S(V227I) and RTP2(L220R) (general method)
T7 sequence (Q8NGE2 with tags, fused parts or gaps): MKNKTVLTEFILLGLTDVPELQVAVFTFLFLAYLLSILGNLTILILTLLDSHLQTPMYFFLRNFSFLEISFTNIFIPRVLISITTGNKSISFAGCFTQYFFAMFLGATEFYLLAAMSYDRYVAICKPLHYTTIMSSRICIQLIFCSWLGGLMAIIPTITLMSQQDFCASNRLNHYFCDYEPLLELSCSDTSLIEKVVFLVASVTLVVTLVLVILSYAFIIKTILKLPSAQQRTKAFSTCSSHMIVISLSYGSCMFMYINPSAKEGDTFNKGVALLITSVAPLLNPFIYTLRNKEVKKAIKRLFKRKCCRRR
The description is as above.

For `CC1OCCC1S` (stereo not drawn) [2-methyl-3-tetrahydrofuranthiol], the “ligands identified in screening of sulfur odorants” value at OR2T4 is reported as “good ligands”.
A word on the EC50: it is the concentration needed to bring the measured effect to its halfway point. Turning to `CC(CO)C1=C2C(C)(C)C3CCC2(C3)C(C)(C)CC1` (stereo not drawn) [Ambermax], on OR7C1, the Comments on efficacy is 3.5-fold lower maximal induction for wild-type, the Fold-improvement potency is 2.7 and the Fold-improvement threshold is listed as 16.2. The luciferase induction result on OR7C1 (1 µM, OR7C1 with SEQ ID NO: 86) is reported as “around 10 fold”. Further, the EC50 at OR7C1 (changed C-term SEQ ID NO: 86) came out at 2.3 µM. Moreover, the “Detection threshold; concentration for 2-fold induction” value on OR7C1 (changed C-term. SEQ ID NO: 86) is given as 0.17 µM. On OR7C1 (wild-type), the “Detection threshold; concentration for 2-fold induction” value is 2.76 µM and the EC50 was 6.14 µM.
Consider `CCCCCC1CCCC(=O)O1` (stereo not drawn) [Decalactone delta], for which the “EC2 (concentration for 2-fold luciferase induction)” value in data set [1] was 5.31 µM; on OR10J1(M51I,I92M), 31.73 µM; at OR2J2, 98.89 µM; on OR2AP1, “inactive”. At OR10A3, the “EC10 (concentration for 10-fold OR activation)” value is 2.10 µM.
In the same order, the values of `CCCCCCC1CCC(=O)O1` (stereo not drawn) [Decalactone gamma] are 1.62 µM, 3.63 µM, 3.27 µM, 33.66 µM and 0.84 µM.
In the same order, the values of `CCCCCCCC1CCCC(=O)O1` (stereo not drawn) [Dodecalactone delta] are 1.11 µM, 31.38 µM, 35.12 µM, 15.76 µM and 2.59 µM.
In the same order, the values of `CCCCCCCCC1CCC(=O)O1` (stereo not drawn) [Dodecalactone gamma] are 0.48 µM, 5.31 µM, 1.41 µM, 1.31 µM and 0.85 µM.
Turning to `CCCC1CCC(=O)O1` (stereo not drawn) [Heptalactone gamma], the “EC2 (concentration for 2-fold luciferase induction)” value (in data set [1]; on OR10J1(M51I,I92M); at OR2J2; at OR2AP1) was “inactive” in each case. Besides, the “EC10 (concentration for 10-fold OR activation)” value at OR10A3 is on record as 298.04 µM.
On to `CC1=CCC(C(C)CC2CCCC2=O)CC1` (stereo not drawn) [Nectaryl], for which the “EC2 (concentration for 2-fold luciferase induction)” value in data set [1] was 1.12 µM; on OR10J1(M51I,I92M), “inactive”; at OR2AP1 it was 19.72 µM. Moreover, the “EC10 (concentration for 10-fold OR activation)” value at OR10A3 came to 2.32 µM.
As to `CCCCCC1CCC(=O)O1` (stereo not drawn) [Nonalactone gamma], the “EC2 (concentration for 2-fold luciferase induction)” value in data set [1] is 11.34 µM; at OR10J1(M51I,I92M) it was 11.14 µM; at OR2J2, 12.85 µM; at OR2AP1, “inactive”. Moreover, the “EC10 (concentration for 10-fold OR activation)” value on OR10A3 is given as 2.83 µM.
In the same order, the values of `CCCCC1CCC(=O)O1` (stereo not drawn) [Octalactone gamma] are “inactive”, 101.73 µM, 65.20 µM, “inactive” and 26.93 µM.
In the same order, the values of `CCCCCCCC1CCC(=O)O1` (stereo not drawn) [Undecalactone gamma] are 0.34 µM, 2.11 µM, 0.71 µM, 6.53 µM and 0.28 µM.
As for `CCCSSCCC` [dipropyl disulfide], the “ligands identified in screening of sulfur odorants” value on OR2T4 is “good ligands”.
